What was measured:
[1] = tested on: CSF proteome (Olink Explore 384 panels, 1463 analytes); test: Olink proteomics of cerebrospinal fluid of MS patients under therapy; assay type: in vivo, human
Procedure: In the present study, a platform technology (Olink® Proteomics) was used. This test utilizes a high throughput, multiplex immunoassay technology that enables the measurement of over 1000 proteins from small sample volumes. See e.g., Assarsson E, et al. PLoS One 2014; 9(4): e95192; and Cui M, et al. Lab Invest 2022, each of which is incorporated by reference in its entirety. Two sets of subjects were analyzed. First, Olink proteomics technology was used to profile the baseline CSF proteome of untreated MS patients. Second, alterations to the MS CSF proteome upon therapeutic intervention with either a B cell depleting agent alone or after transitioning to tolebrutinib, a brain penetrant Bruton's tyrosine kinase (BTK) inhibitor, was evaluated.
To establish a baseline of proteomic expression, an Olink proteomics assay was performed on the CSF of multiple groups of subjects, including healthy volunteers (HV), HTLV 1 associated myelopathy/tropical spastic paraparesis (HAM/TSP) patients, radiologically isolated syndrome (RIS) patients, clinically isolated syndrome (CIS) patients, and multiple sclerosis (MS) patients, including patients with relapsing remitting MS (RRMS), secondary progressive MS (SPMS), and primary progressive MS (PPMS). CSF samples were collected from 31 healthy volunteers and 71 treatment-naïve subjects with MS. The CSF proteome was examined using the Cardiometabolic, Inflammation, Neurology, and Oncology Olink Explore 384 panels (1463 analytes total).
Next, it was examined whether treatment with different therapies for patients having MS would result in differential proteome expression. A group of subjects with MS were treated either with an anti-CD20 antibody alone or with an anti-CD20 antibody and then transitioning to tolebrutinib, and their proteome was examined using similar techniques described in Example 1B. More specifically, the cohort of MS patients in this example included untreated patients, patients treated with a B cell depleting agent for at least six months, and patients 12 weeks and 48 weeks after transitioning from a B cell depletion therapy to tolebrutinib in a clinical trial (NCT04742400).
Several participants (age [mean±standard deviation]: 48.2±7.9 years; sex: 2 female) who had been treated with ocrelizumab for >6 months (median: 3.2 years; range: 1.8-4.0 years) were included. Participants had no signs of acute focal inflammation based on magnetic resonance imaging. CSF was collected before baseline (within 6 months since last ocrelizumab infusion), and at 12 and 48 weeks after transitioning to tolebrutinib 60 mg.
The data were sorted into two sets of comparisons. The comparisons include (1) subjects treated with an anti-CD20 antibody compared to untreated MS subjects (FIG. 3) and (2) subjects treated with tolebrutinib after transitioning from an anti-CD20 antibody compared to subjects treated with an anti-CD20 antibody (FIG. 4A).

CXCL13 = CXCL13 protein level in CSF by MSD (meso scale discovery); assay type: in vivo, human; settings: MSD (FIG. 6); twelve week and forty-eight week course of tolebrutinib vs untreated, HAM/TSP or continued ocrelizumab
Text: HV: health volunteer; HAM/TSP: HTLV-1 associated myelopathy/tropical spastic paraparesis without treatment; MS_untreated: subjects with MS but have not been treated; MS_ocrelizumab: subjects treated only with an anti-CD20 antibody; MS_tolebrutinib: subjects treated with daily doses of tolebrutinib.
Similarly, this decrease was seen when comparing subjects who continued treatment with the anti-CD20 antibody (ocrelizumab) with subjects treated with a twelve week and forty-eight week course of tolebrutinib. FIGS. 4D, 5, and 6.

[2] = CSF, subjects treated with anti-CD20 antibody for at least six months vs untreated MS subjects
[3] = CSF, 48 weeks after transitioning from anti-CD20 antibody to tolebrutinib 60 mg vs anti-CD20 antibody
[4] = CSF, 48 weeks post-transition to tolebrutinib vs anti-CD20

In the case of “anti-CD20 antibody: B cell depleting agent; participants had been treated with ocrelizumab, humanized monoclonal antibody directed against the CD20 antigen”, the “CD6 Fold-change (antiCD20. vs. Untreated)” value [1, 2] is reported as −1.8, the “CD22 Fold-change (antiCD20. vs. Untreated)” value [1, 2] is reported as −2.442 and the “FCRL1 Fold-change (antiCD20. vs. Untreated)” value [1, 2] is reported as −2.744. The “SORD Fold-change (antiCD20. vs. Untreated)” value [1, 2] was 2.045.

`C=CC(=O)N1CCC[C@@H](n2c(=O)n(-c3ccc(Oc4ccccc4)cc3)c3c(N)nccc32)C1` [tolebrutinib, (R)-1-(1-acryloylpiperidin-3-yl)-4-amino-3-(4-phenoxyphenyl)-1H-imidazo[4,5-c]pyridin-2(3H)-one] was tested, and the “CXCL13 in CSF” value (CXCL13) was “decrease”, the “example biomarkers NEFL, CXCL13, CXCL10, CD27, CCL4 and CCL3 in CSF” value ([1]; 48 weeks after transitioning from anti-CD20 therapy to tolebrutinib) was “disease-reversed proteins” and the “ANGPT1 Fold-Change (48wkBTKi. vs. antiCD20)” value [1, 3] was −1.658. The “ANGPTL2 Fold-Change (48wkBTKi. vs. antiCD20)” value [1, 3] was −3.266, the “ATXN10 Fold-Change (48wkBTKi. vs. antiCD20)” value [1, 3] was −6.437 and the “CCL3 Fold-Change (48wkBTKi. vs. antiCD20)” value [1, 3] was −2.142. For the same compound, the “CCL4 Fold-Change (48wkBTKi. vs. antiCD20)” value [1, 3] was −2.092, the “CCL8 Fold-Change (48wkBTKi. vs. antiCD20)” value [1, 3] was −2.68 and the “CCL11 Fold-Change (48wkBTKi. vs. antiCD20)” value [1, 3] was −1.9597. For the same compound, the “CCN4 Fold-Change (48wkBTKi. vs. antiCD20)” value [1, 3] was −1.611, the “CD4 Fold-Change (48wkBTKi. vs. antiCD20)” value [1, 3] was −1.706 and the “CD8A Fold-Change (48wkBTKi. vs. antiCD20)” value [1, 3] was −1.75. The “CD38 Fold-Change (48wkBTKi. vs. antiCD20)” value [1, 3] was −2.035, the “CD276 Fold-Change (48wkBTKi. vs. antiCD20)” value [1, 3] was −2.173 and the “CD302 Fold-Change (48wkBTKi. vs. antiCD20)” value [1, 3] was −1.5791. The “CDH3 Fold-Change (48wkBTKi. vs. antiCD20)” value [1, 3] was −2.293, the “CDNF Fold-Change (48wkBTKi. vs. antiCD20)” value [1, 3] was −2.1 and the “CGREF1 Fold-Change (48wkBTKi. vs. antiCD20)” value [1, 3] was −1.535. The “CHRDL1 Fold-Change (48wkBTKi. vs. antiCD20)” value [1, 3] was −2.236, the “CLEC4C Fold-Change (48wkBTKi. vs. antiCD20)” value [1, 3] was −1.714 and the “CLUL1 Fold-Change (48wkBTKi. vs. antiCD20)” value [1, 3] was −2.021. For the same compound, the “CTRC Fold-Change (48wkBTKi. vs. antiCD20)” value [1, 3] was −2.869, the “CXCL1 Fold-Change (48wkBTKi. vs. antiCD20)” value [1, 3] was −3.054 and the “CXCL8 Fold-Change (48wkBTKi. vs. antiCD20)” value [1, 3] was −1.605. The “CXCL10 Fold-Change (48wkBTKi. vs. antiCD20)” value [1, 3] was −3.598, the “DRAXIN Fold-Change (48wkBTKi. vs. antiCD20)” value [1, 3] was −2.047 and the “HS3ST3B1 Fold-Change (48wkBTKi. vs. antiCD20)” value [1, 3] was −1.708. The “HYOU1 Fold-Change (48wkBTKi. vs. antiCD20)” value [1, 3] was −1.676, the “IL5RA Fold-Change (48wkBTKi. vs. antiCD20)” value [1, 3] was −1.716 and the “IL11 Fold-Change (48wkBTKi. vs. antiCD20)” value [1, 3] was −6.841. For the same compound, the “KAZALD1 Fold-Change (48wkBTKi. vs. antiCD20)” value [1, 3] was −1.548, the “KRT18 Fold-Change (48wkBTKi. vs. antiCD20)” value [1, 3] was −1.6528 and the “LPL Fold-Change (48wkBTKi. vs. antiCD20)” value [1, 3] was −1.744. For the same compound, the “LTA Fold-Change (48wkBTKi. vs. antiCD20)” value [1, 3] was −1.552, the “MATN3 Fold-Change (48wkBTKi. vs. antiCD20)” value [1, 3] was −1.889 and the “MFAP5 Fold-Change (48wkBTKi. vs. antiCD20)” value [1, 3] was −2.536. The “MSLN Fold-Change (48wkBTKi. vs. antiCD20)” value [1, 3] was −2.068, the “MZB1 Fold-Change (48wkBTKi. vs. antiCD20)” value [1, 3] was −1.968 and the “NEFL Fold-Change (48wkBTKi. vs. antiCD20)” value [1, 3] was −3.42. For the same compound, the “NPDC1 Fold-Change (48wkBTKi. vs. antiCD20)” value [1, 3] was −2.471, the “NPTX1 Fold-Change (48wkBTKi. vs. antiCD20)” value [1, 3] was −2.103 and the “NPY Fold-Change (48wkBTKi. vs. antiCD20)” value [1, 3] was −1.797. The “NTproBNP Fold-Change (48wkBTKi. vs. antiCD20)” value [1, 3] was −2.314, the “NUB1 Fold-Change (48wkBTKi. vs. antiCD20)” value [1, 3] was −1.624 and the “NUCB2 Fold-Change (48wkBTKi. vs. antiCD20)” value [1, 3] was −2.551. For the same compound, the “PDCD5 Fold-Change (48wkBTKi. vs. antiCD20)” value [1, 3] was −2.511, the “PRL Fold-Change (48wkBTKi. vs. antiCD20)” value [1, 3] was −3.416 and the “ROBO1 Fold-Change (48wkBTKi. vs. antiCD20)” value [1, 3] was −1.511. The “RTBDN Fold-Change (48wkBTKi. vs. antiCD20)” value [1, 3] was −2.625, the “SCG2 Fold-Change (48wkBTKi. vs. antiCD20)” value [1, 3] was −2.959 and the “SCG3 Fold-Change (48wkBTKi. vs. antiCD20)” value [1, 3] was −2.2848. The “SPRY2 Fold-Change (48wkBTKi. vs. antiCD20)” value [1, 3] was −1.907, the “STC1 Fold-Change (48wkBTKi. vs. antiCD20)” value [1, 3] was −1.863 and the “TDGF1 Fold-Change (48wkBTKi. vs. antiCD20)” value [1, 3] was −4.457. The “TIMP4 Fold-Change (48wkBTKi. vs. antiCD20)” value [1, 3] was −1.776, the “TNFRSF6B Fold-Change (48wkBTKi. vs. antiCD20)” value [1, 3] was −2.999 and the “TNFRSF13B Fold-Change (48wkBTKi. vs. antiCD20)” value [1, 3] was −2.063. The “WFIKKN2 Fold-Change (48wkBTKi. vs. antiCD20)” value [1, 3] was −2.432, the “WIF1 Fold-Change (48wkBTKi. vs. antiCD20)” value [1, 3] was −1.994 and the “share of disease-associated proteins reverting towards levels observed in healthy volunteers” value ([1]; CSF, 48 weeks after transitioning to tolebrutinib from a B-cell depleting therapy) was 47%. For the same compound, the “number of proteins with decreased abundance” value [1, 4] was 60 proteins, the “number of proteins with increased abundance” value [1, 4] was 0 proteins and the “proteins with increased abundance in subjects with MS (relative to HV) that were reversed” value ([1]; CSF, 48 weeks post-transitioning to tolebrutinib relative to anti-CD20 baseline levels) was 30 proteins. For the same compound, the “CXCL10 in CSF” value ([1]; Olink, subjects who switched from ocrelizumab to tolebrutinib (12 and 48 weeks)) was “downregulated” and the “CXCL13 in CSF” value ([1]; Olink, subjects who switched from ocrelizumab to tolebrutinib, twelve week and forty-eight week course) was “downregulated”.

Source: patent US20250354998A1, “METHODS OF DIAGNOSING AND TREATING MULTIPLE SCLEROSIS BY DETECTING A BIOMARKER IN THE CEREBROSPINAL FLUID” (Principia Biopharma Inc., priority 2023, published 2025)
